Measurements: article PMC12582325 (Proceedings of the National Academy of Sciences of the …, 2025)
Several values for one entry are separate records, joined by “and”; a condition that tells them apart may be missing. Equal values may be shown once. Entries after “also recorded” stand apart in the source; their conditions may differ. Read-outs that look alike come from different tables or passages of the source. Where a SMILES comes first, the peptide text is derived from it.

Legend:
Bc.Ste2 [1] = type: cell-based, Botrytis cinerea; settings: YPL1 library cocultured with Bc.Ste2 strain GEN89, 20 h, 2 d diploid enrichment, NextSeq 500
Sc Ste2 = biological target: T1, Sc Ste2 (Saccharomyces cerevisiae, UniProt D6VTK4); type: cell-based
T1 construct: The native Sc system and an empty construct were added as positive and negative controls; endogenous in cells; host or cells: Saccharomyces cerevisiae wild-type control strains GEN18 (MATa) and GEN27 (MATα)
T1 sequence (D6VTK4 1-431): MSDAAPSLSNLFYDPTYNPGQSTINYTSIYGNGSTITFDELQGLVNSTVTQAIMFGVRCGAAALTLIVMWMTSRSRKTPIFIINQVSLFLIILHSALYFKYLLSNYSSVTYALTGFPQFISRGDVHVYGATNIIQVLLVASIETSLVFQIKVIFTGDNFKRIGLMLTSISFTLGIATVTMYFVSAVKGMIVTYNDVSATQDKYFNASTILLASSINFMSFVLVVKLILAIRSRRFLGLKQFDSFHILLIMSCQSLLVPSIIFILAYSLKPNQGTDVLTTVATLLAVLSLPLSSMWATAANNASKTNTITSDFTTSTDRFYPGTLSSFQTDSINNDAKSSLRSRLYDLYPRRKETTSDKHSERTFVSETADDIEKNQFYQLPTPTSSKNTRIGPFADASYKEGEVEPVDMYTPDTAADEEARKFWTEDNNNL

[2] = tested on: F. oxysporum in tomato roots; assay: Quantification of fungal DNA in tomato roots (qPCR); settings: 3 d after inoculation, washed roots; compared to the untreated infected roots; three biological replicates
Fg.Ste2 [3] = type: cell-based, Fusarium graminearum; settings: for Diploid frequency (%): 20 h coculture; for diploid frequency (%) / average (diploid colonies): GPCR strain GEN37 HIS; for average (diploid colonies): dilution 500, mean of Rep1-3
Ca.Ste2 = type: cell-based, Candida albicans
F. oxysporum germ tubes = settings: gradient of 400 μM pheromone against the solvent (50% methanol); 13 h; water-agar; three biological replicates; Fig. 5A
Method: For the B. bassiana and F. oxysporum chemotropism assay and plant infection assays the pheromones were dissolved in 50% (v/v) MeOH to reach a concentration of 4,000 μM.
Fungal chemotropism was conducted as previously described ([11]). For each compound or combination of compounds tested, 300 hyphal tips were scored. All experiments were performed in three biological replicates.

Fo.Ste2 [4] = type: cell-based, Fusarium oxysporum
[5] = tested on: no_GPCR (negative control lacking a GPCR); type: cell-based, Saccharomyces cerevisiae; settings: for barcode qPCR of diploids, no_GPCR x pheromone strain: consortium, individual replicates (n=3), listed as Fo.Pheromone
Nc Ste2 GPCR = type: cell-based, Neurospora crassa
Fo.Ste2 [6] = type: cell-based, Fusarium oxysporum; remark: listed apart in the source
Fg.Ste2 [7] = settings: for barcode qPCR of diploids, Fg.Ste2 x pheromone strain: consortium, individual replicates (n=3), listed as Fo.Pheromone
Bc.Ste2 [8] = type: cell-based, Botrytis cinerea
[9] = tested on: empty (strain lacking a GPCR); type: cell-based, Saccharomyces cerevisiae; settings: Fig. 1D mating matrix; pheromone secreted by MATa strain, MATα strain lacking a GPCR (empty); deep well plate, 20 h coculture
Mo Ste2 GPCR = type: cell-based, Magnaporthe oryzae; settings: Fig. 1D mating matrix; pheromone secreted by MATa strain, GPCR in MATα strain; deep well plate, 20 h coculture; three technical plating replicates
Bb.Ste2 [10] = type: cell-based, Beauveria bassiana; settings: YPL1 library cocultured with Bb.Ste2 strain GEN88, 20 h, 2 d diploid enrichment, NextSeq 500
Bc.Ste2 [11] = type: cell-based, Botrytis cinerea; remark: listed apart in the source
Hj.Hpr2 = type: cell-based, Hypocrea jecorina
B. bassiana = type: cell-based, Beauveria bassiana
Bb.Ste2 [12] = type: cell-based, Beauveria bassiana
Fo.Ste2 [13] = assay: YeMaP Library-on-One: YPL1 pheromone library enrichment by mating, NGS; type: cell-based, Fusarium oxysporum; settings: YPL1 library cocultured with Fo.Ste2 strain GEN90, 20 h, 2 d diploid enrichment, NextSeq 500

SMILES: C[C@@H](O)[C@H](NC(=O)[C@H](CS)NC(=O)[C@@H](N)Cc1c[nH]c2ccccc12)C(=O)N[C@@H](Cc1c[nH]c2ccccc12)C(=O)N[C@@H](CCCNC(=N)N)C(=O)NCC(=O)N[C@@H](CCC(N)=O)C(=O)N1CCC[C@H]1C(=O)N[C@@H](CS)C(=O)N[C@@H](Cc1c[nH]c2ccccc12)C(=O)O [Fo] (H-WCTWRGQPCW-OH; N-terminus assumed)
- Enrichment after mating, reads per million minus library before coculture (Bc.Ste2 [1]): > 340,000 RPM
- Diploid frequency (%) (Sc Ste2): 0.0%
- Fungal biomass in inoculated tomato roots (qPCR of Fol4287 actin gene, 2^−ΔΔCt, normalized to tomato gapdh) [2]: significant reduction in fungal biomass
- Diploid frequency (%) (Fg.Ste2 [3]; Fig. 1D mating matrix, pheromone secreted by MATa strain, GPCR in MATα strain, deep well plate, three technical plating replicates): 0.5%
- Diploid frequency (%) (Fg.Ste2 [3]; Fig. 1F validation in culture tubes, secreted pheromone, three biological and three technical replicates): 8.8%
- diploid frequency (%) (Fg.Ste2 [3]; co-culture replicate 1): 1.34%
- average (diploid colonies) (Fg.Ste2 [3]; co-culture replicate 1): 5.67
- diploid frequency (%) (Fg.Ste2 [3]; co-culture replicate 2): 1.11%
- average (diploid colonies) (Fg.Ste2 [3]; co-culture replicate 2): 4.67
- diploid frequency (%) (Fg.Ste2 [3]; co-culture replicate 3): 0.95%
- average (diploid colonies) (Fg.Ste2 [3]; co-culture replicate 3): 4
- Diploid frequency (%) (Ca.Ste2): 0.0%
- Chemotropic response in F. oxysporum germ tubes (F. oxysporum germ tubes): significant chemotropic response
- Fold change yEGFP (Fo.Ste2 [4]): 236
- Hillslope (Fo.Ste2 [4]): 2.574
- logEC50 (Fo.Ste2 [4]): -7.534
- Sup.Fig.3B Fo.Ste2 biosensor response, group mean (Fo.Ste2 [4]; 0.5 μM): 1195000
- barcode qPCR of diploids, no_GPCR x pheromone strain ([5]; SC-AS/Urea): 0 and 0.004 and 0.005
- barcode qPCR of diploids, no_GPCR x pheromone strain ([5]; SC): 0 (2×) and 0.007
- diploid barcode qPCR signal relative to control (2^-dCt) ([5]; section A4, GPCR strain not given, mean of Bio1-3): 0.036
- diploid barcode qPCR signal relative to control (2^-dCt) ([5]; section A4, column EMPTY, replicate Bio1): 0.014
- diploid barcode qPCR signal relative to control (2^-dCt) ([5]; section A4, column EMPTY, replicate Bio2): 0.039
- diploid barcode qPCR signal relative to control (2^-dCt) ([5]; section A4, column EMPTY, replicate Bio3): 0.054
- diploid barcode qPCR signal relative to control (2^-dCt) ([5]; section Cm, GPCR strain not given, mean of Bio1-3): 0.002
- diploid barcode qPCR signal relative to control (2^-dCt) ([5]; section Cm, column EMPTY, replicate Bio1): 0.005
- diploid barcode qPCR signal relative to control (2^-dCt) ([5]; section Cm, column EMPTY, replicate Bio2): 0
- diploid barcode qPCR signal relative to control (2^-dCt) ([5]; section Cm, column EMPTY, replicate Bio3): 0
- diploid barcode qPCR signal relative to control (2^-dCt) ([5]; section SC, GPCR strain not given, mean of Bio1-3): 0.0024
- diploid barcode qPCR signal relative to control (2^-dCt) ([5]; section SC, column EMPTY, replicate Bio1): 0
- diploid barcode qPCR signal relative to control (2^-dCt) ([5]; section SC, column EMPTY, replicate Bio2): 0
- diploid barcode qPCR signal relative to control (2^-dCt) ([5]; section SC, column EMPTY, replicate Bio3): 0.007
- diploid barcode qPCR signal relative to control (2^-dCt) ([5]; section Scramble, GPCR strain not given, mean of Bio1-3): 0.0071
- diploid barcode qPCR signal relative to control (2^-dCt) ([5]; section Scramble, column EMPTY, replicate Bio1): 0
- diploid barcode qPCR signal relative to control (2^-dCt) ([5]; section Scramble, column EMPTY, replicate Bio2): 0.015
- diploid barcode qPCR signal relative to control (2^-dCt) ([5]; section Scramble, column EMPTY, replicate Bio3): 0.006
- Diploid frequency (%) (Nc Ste2 GPCR): 0.0%
- barcode qPCR of diploids, Fo.Ste2 x pheromone strain (Fo.Ste2 [6]): 0.439
- Sup.Fig.7B - Fo, group mean (Fo.Ste2 [6]; pH=6): 1.65
- Sup.Fig.7B - Fo, group mean (Fo.Ste2 [6]; pH=7): 0.8933
- qPCR, Fo + Fo (Fo.Ste2 [6]; ph=6): 0.386 and 0.413 and 0.467
- qPCR, Fo + Fo (Fo.Ste2 [6]; ph=7): 0.660 and 0.439 and 0.352
- barcode qPCR of diploids, Fg.Ste2 x pheromone strain (Fg.Ste2 [7]; SC-AS/Urea): 0.002 and 0.005 and 0.018
- barcode qPCR of diploids, Fg.Ste2 x pheromone strain (Fg.Ste2 [7]; SC): 0.005 (2×) and 0.013
- diploid barcode qPCR signal relative to control (2^-dCt) (Fg.Ste2 [7]; section A4, (GPCR strain) Fg, mean of Bio1-3): 0.118
- diploid barcode qPCR signal relative to control (2^-dCt) (Fg.Ste2 [7]; section A4, column Fg, replicate Bio1): 0.012
- diploid barcode qPCR signal relative to control (2^-dCt) (Fg.Ste2 [7]; section A4, column Fg, replicate Bio2): 0.1
- diploid barcode qPCR signal relative to control (2^-dCt) (Fg.Ste2 [7]; section A4, column Fg, replicate Bio3): 0.242
- diploid barcode qPCR signal relative to control (2^-dCt) (Fg.Ste2 [7]; section Cm, (GPCR strain) Fg, mean of Bio1-3): 0.038
- diploid barcode qPCR signal relative to control (2^-dCt) (Fg.Ste2 [7]; section Cm, column Fg, replicate Bio1): 0.014
- diploid barcode qPCR signal relative to control (2^-dCt) (Fg.Ste2 [7]; section Cm, column Fg, replicate Bio2): 0.066
- diploid barcode qPCR signal relative to control (2^-dCt) (Fg.Ste2 [7]; section Cm, column Fg, replicate Bio3): 0.033
- diploid barcode qPCR signal relative to control (2^-dCt) (Fg.Ste2 [7]; section SC, (GPCR strain) Fg, mean of Bio1-3): 0.0075
- diploid barcode qPCR signal relative to control (2^-dCt) (Fg.Ste2 [7]; section SC, column Fg, replicate Bio1): 0.005
- diploid barcode qPCR signal relative to control (2^-dCt) (Fg.Ste2 [7]; section SC, column Fg, replicate Bio2): 0.005
- diploid barcode qPCR signal relative to control (2^-dCt) (Fg.Ste2 [7]; section SC, column Fg, replicate Bio3): 0.013
- diploid barcode qPCR signal relative to control (2^-dCt) (Fg.Ste2 [7]; section Scramble, (GPCR strain) Fg, mean of Bio1-3): 0.0276
- diploid barcode qPCR signal relative to control (2^-dCt) (Fg.Ste2 [7]; section Scramble, column Fg, replicate Bio1): 0.025
- diploid barcode qPCR signal relative to control (2^-dCt) (Fg.Ste2 [7]; section Scramble, column Fg, replicate Bio2): 0.022
- diploid barcode qPCR signal relative to control (2^-dCt) (Fg.Ste2 [7]; section Scramble, column Fg, replicate Bio3): 0.036
- Effect on activation of Bc.Ste2 by Bc pheromone, in words (Bc.Ste2 [8]; 0.0005 μM Bc pheromone in combination with 10 μM peptide, four biological replicates, Fig. 2G): do not differ significantly from Bc alone; also recorded: no such effect
- Bc.Ste2 + pheromones, biosensor response, group mean (Bc.Ste2 [8]; Bc + the named peptide, Bc alone mean 134.8, mean of n = 4): 104.9
- Diploid frequency (%) [9]: 0.1%
- Diploid frequency (%) (Mo Ste2 GPCR): 0.0%
- Enrichment after mating, reads per million minus library before coculture (Bb.Ste2 [10]): > 340,000 RPM
- Fold change yEGFP (Bc.Ste2 [11]): 1
- Hillslope (Bc.Ste2 [11]): 0.5934
- logEC50 (Bc.Ste2 [11]): -8.991
- Sup.Fig.3A Bc.Ste2 biosensor response, group mean (Bc.Ste2 [11]; 10 μM): 1.713
- barcode qPCR of diploids, Hj.HPR2 x pheromone strain (Hj.Hpr2): 0
- diploid barcode qPCR signal relative to control (2^-dCt) (Hj.Hpr2): 0
- Chemotropism of spores, group mean (B. bassiana): 11.13
- chem. Index (B. bassiana): 14.29 and 11.03 and 8.06
- Chemotropic response in Bb germ tubes (B. bassiana; 20 hours): significant chemotropic response
- diploid barcode qPCR signal relative to control (2^-dCt) (Bb.Ste2 [12]): 0
- Enrichment after mating, reads per million minus library before coculture (Fo.Ste2 [13]): > 340,000 RPM
